Legend:
[1] = polycarbonate membrane, 200 μm-thick mucus layer, room temperature
Protocol: The adhesion module was built with a functional double layer separating the completely anaerobic upper chamber (95% N2-5% CO2) from the aerobic lower chamber (95% O2-5% CO2). Oxygen concentration in the upper chamber was measured by means of a Hach Lange luminescent LDO oxygen probe. Experiments were conducted at room temperature with a 200 μm-thick mucus layer using a polycarbonate or a polyamide membrane.

[2] = Adhesion of a pure bacterial culture to the mucus-covered layer of the adhesion module; settings: contact time […]
Protocol: A first objective of working with the in vitro adhesion module is to explore the adhesion potential of pure cultures of gut microorganisms vs mixed microbial communities onto a mucus-covered layer. A culture of Lactobacillus rhamnosus GG was grown in relevant medium and inoculated in the luminal chamber of the adhesion module. The luminal chamber of a second system was inoculated with an in vitro adapted microbial community originated from the ascending colon of a Simulator of the Human Intestinal Microbial Ecosystem (SHIME) reactor. The adhesion module consisted of a luminal chamber containing the growth medium and the inoculated bacterial strain and a basal chamber from which oxygen could diffuse across a semi-permeable polycarbonate membrane, which was covered on its luminal side with a mucin layer, relevant for the specific region of the gastrointestinal tract. The contact time between the inoculated bacteria and the functional layer was established in 1.5 h. […] The obtained suspension was analyzed for microbial concentration using plate counts specific for different bacterial groups. […] Although not further analyzed at this moment, also the medium and optionally present cells of the basal chamber can be sampled and analyses can be conducted to estimate the simulated host's cellular response.

[3] = system: suspension of the ascending colon compartment of a SHIME system; experiment: Adhesion potential of a mixed microbial community under short-term prebiotic treatment in the adhesion module; settings: ascending colon SHIME suspension in luminal chamber, data not shown
Excerpt: A second objective of working with the in vitro adhesion module is to explore the adhesion potential of selected microbial cultures in the presence of a complex microbial community relevant for the terminal ileum and colon respectively and to evaluate the host cellular response towards this community. To this end, a suspension of the ascending colon compartment of a SHIME system was sampled and inoculated in the luminal chamber of the adhesion module in presence of inulin with a degree of polymerization between 2 and 20, and arabinoxylans (AX) with a degree of substitution of 0.7, and a strongly varying degree of polymerization (on average 200). The short-term effect of these functional foods was evaluated.

[4] = system: mucin-adhered microbiota of the SHIME; experiment: Long-term prebiotic treatment in the SHIME with adhesion modules, plate counts, Adhesion Related Prebiotic Index; set-up: species or system human; settings: 2.5 g/L; for Adhesion Related Prebiotic Index (AR-PI): mucin-adhered microbial community, plate counts before and after the treatment
Excerpt: The aim of this study was to evaluate the effect of known prebiotic compounds (inulin and arabinoxylan—AX) on the microbiota associated with the gut wall in different areas of the GI tract and under long-term representative conditions. For this purpose, the adhesion module was used together with a well-validated gastrointestinal model—the Simulator of the Human Intestinal Microbial Ecosystem (SHIME). Clearly, the inherent adhesion potency, the specific growth rate, the state of mucus layer and interaction with endogenous microorganisms (adhered or in suspension) determined the microbial potency to colonize the intestinal epithelium.
The reactor setup is adapted from the system, representing the gastrointestinal tract of the adult human, as described by Molly et al. (1993). The SHIME consists of a succession of five reactors simulating the different parts of the human gastrointestinal tract. The first two reactors are of the fill-and-draw principle to simulate different steps in food uptake and digestion, with peristaltic pumps adding a defined amount of SHIME feed (140 mL 3×/day) and pancreatic and bile liquid (60 mL 3×/day), respectively to the stomach (V1) and duodenum (V2) compartment and emptying the respective reactors after specified intervals. The last three compartments are continuously stirred reactors with constant volume and pH control. Retention time and pH of the different vessels are chosen in order to resemble in vivo conditions in the different parts of the gastrointestinal tract. The overall residence time of the last three vessels, simulating the large intestine, is 76 h. Upon inoculation with fecal microbiota, these reactors simulate the ascending (V3), transverse (V4) and descending (V5) colon. Inoculum preparation, retention time, pH, temperature settings and reactor feed composition were previously described by Possemiers et al. (2004). […]
During the basal period, the SHIME reactor is operated under nominal conditions. Parameters such as short chain fatty acid (SCFA) production and ammonium production are determined 3 times/week and plate count analyses are performed once a week for selected bacterial groups (total (an) aerobes, total Clostridia, lactobacilli, bifidobacteria, total coliforms, staphylococci). The results of these analyses serve as the background values to be used to compare the measured parameters from the treatment period. […]
During the treatment period, the SHIME reactor is operated under nominal conditions, but with a modified diet containing a lower amount of starch in the medium compared to that of the basal period and the effect of a specific compound (inulin or arabinoxylan—2.5 g/L) is tested. SCFA and ammonium production are determined 3 times/week and plate count analysis is performed once a week. […]

O=O [Oxygen]
relative diffusion coefficient (DO2) [1]: 9.8.10^−6 cm^2/sec

Lactobacillus rhamnosus GG
factor by which adhesion to the mucin-agar layer is higher than to mucin-free agar [2]: 6.19
percentage adhesion ([2]; mucin-agar layer, plate counts): 15.7±3.2%

arabinoxylan [AX]
effect on adhesion capacity of the investigated bacterial groups [3]: decreased the adhesion capacity of all the investigated groups
effect on the luminal and mucin-associated bacteria compared to that of inulin ([4]; long-term SHIME treatment): stronger and more permanent
stimulation of the adhered lactobacilli ([4]; long-term SHIME treatment): particularly potent
Adhesion Related Prebiotic Index (AR-PI) [4]: 70

inulin
effect on adhesion capacity of the investigated bacterial groups [3]: less or no influence
Adhesion Related Prebiotic Index (AR-PI) [4]: 14
